Results published in patent US12146004B2, “Polymyxin compounds and uses thereof” (priority 2014, dated 2024).
Converted amounts (≈) assume the structure as drawn. Like-named read-outs stand apart in the source and are kept apart here. Bridge positions count the residues as written; N and C are the ends. Square brackets hold non-standard residues; d marks the D form. Peptide text beside a SMILES is read from it. * marks the point of attachment. ξ: configuration not given here. dBip = N[C@H](Cc1ccc(-c2ccccc2)cc1)C(=O)O; X3 = CCCCCCCCN1CCNC[C@H]1C(=O)*; dCha = N[C@H](CC1CCCCC1)C(=O)O; Thr(3ξ) = CC(O)[C@H](N)C(=O)O; X1 = CC(C)CN1CCNC[C@H]1C(=O)*; Dab = NCC[C@H](N)C(=O)O; X6 = CCCCCCC(CCN)C(=O)*; Dap = NC[C@H](N)C(=O)O; X2 = CC(C)CC(CN)C(=O)*

Columns and labels:
Assay type in all cases: cell-based
HK-2 cells = test system: HK-2 cells
Source text: Values are reported relative to Polymyxin B.

Escherichia coli = test system: Escherichia coli
How it was run: (§1)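 In vitro susceptibility was determined across up to nine strains of each pathogen, some resistant. Potency is given as MIC, μg/mL.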

Acinetobacter baumannii = test system: Acinetobacter baumannii
How it was run: as §1

Klebsiella pneumoniae = test system: Klebsiella pneumoniae
How it was run: as §1

Pseudomonas aeruginosa = test system: Pseudomonas aeruginosa
How it was run: as §1

HK-2 IC50 (HK-2 cells) [µg/mL]	MIC E. coli 058 (Escherichia coli) [µg/mL]	MIC E. coli 059 (Escherichia coli) [µg/mL]	MIC E. coli 060 (Escherichia coli) [µg/mL]	MIC E. coli 061 (Escherichia coli) [µg/mL]	MIC E. coli ATCC 25922 (Escherichia coli) [µg/mL]	MIC A. baumanii 053 (Acinetobacter baumannii) [µg/mL]	MIC A. baumanii 056 (Acinetobacter baumannii) [µg/mL]	MIC A. baumanii ATCC BAA-747 (Acinetobacter baumannii) [µg/mL]	MIC K. pneumoniae 062 (Klebsiella pneumoniae) [µg/mL]	MIC K. pneumoniae 063 (Klebsiella pneumoniae) [µg/mL]	MIC K. pneumoniae 064 (Klebsiella pneumoniae) [µg/mL]	MIC K. pneumoniae 066 (Klebsiella pneumoniae) [µg/mL]	MIC K. pneumoniae 067 (Klebsiella pneumoniae) [µg/mL]	MIC K. pneumoniae ATCC 4352 (Klebsiella pneumoniae) [µg/mL]	MIC P. aeruginosa 068 (Pseudomonas aeruginosa) [µg/mL]	MIC P. aeruginosa 070 (Pseudomonas aeruginosa) [µg/mL]	MIC P. aeruginosa ATCC 27853 (Pseudomonas aeruginosa) [µg/mL]	MIC K. pneumoniae 065 (Klebsiella pneumoniae) [µg/mL]	SMILES	further results
83	8 (≈ 7.3 µM)	16 (≈ 14.6 µM)	8 (≈ 7.3 µM)	32 (≈ 29.2 µM)	0.25 (≈ 0.228 µM)	>64	64 (≈ 58.4 µM)	0.5 (≈ 0.456 µM)	16 (≈ 14.6 µM)	64 (≈ 58.4 µM)	8 (≈ 7.3 µM)	16 (≈ 14.6 µM)	>64	0.25 (≈ 0.228 µM)	32 (≈ 29.2 µM)	32 (≈ 29.2 µM)	0.5 (≈ 0.456 µM)		CC(C)CC(CN)C(=O)N[C@H](C(=O)N[C@@H](CCN)C(=O)N[C@H]1CCNC(=O)[C@H]([C@@H](C)O)NC(=O)[C@H](CCN)NC(=O)[C@H](CCN)NC(=O)[C@H](CC(C)C)NC(=O)[C@@H](CC2CCCCC2)NC(=O)[C@H](CCN)NC1=O)C(C)O (some centres unmarked) [Example 21] (X2-[Thr(3ξ)][Dab][Dab][Dab][dCha]L[Dab][Dab]T; lactam 3-C)	
32	4 (≈ 3.47 µM)	1 (≈ 0.868 µM)	5 (≈ 4.34 µM)	16 (≈ 13.9 µM)	0.25 (≈ 0.217 µM)	16 (≈ 13.9 µM)	4 (≈ 3.47 µM)	0.25 (≈ 0.217 µM)	4 (≈ 3.47 µM)	16 (≈ 13.9 µM)	2 (≈ 1.74 µM)	4 (≈ 3.47 µM)	32 (≈ 27.8 µM)	0.5 (≈ 0.434 µM)	4 (≈ 3.47 µM)	8 (≈ 6.94 µM)	0.5 (≈ 0.434 µM)	1 (≈ 0.868 µM)	CC(C)CC(CN)C(=O)N[C@H](C(=O)N[C@@H](CN)C(=O)N[C@H]1CCNC(=O)[C@H]([C@@H](C)O)NC(=O)[C@H](CCN)NC(=O)[C@H](CCN)NC(=O)[C@H](CC(C)C)NC(=O)[C@@H](Cc2ccc(-c3ccccc3)cc2)NC(=O)[C@H](CCN)NC1=O)C(C)O (single isomer, unassigned; isomer 2) [Example 16, 2-aminomethyl-4-methyl pentanoyl polymyxin L-Thr-L-Dap-polymyxin [D-(4-phenyl Phe)]-6]heptapeptide. Isomer 2]	
29	2 (≈ 1.77 µM)			16 (≈ 14.1 µM)	0.06 (≈ 0.053 µM)	>64	16 (≈ 14.1 µM)	0.125 (≈ 0.11 µM)		8 (≈ 7.06 µM)				0.06 (≈ 0.053 µM)	8 (≈ 7.06 µM)	32 (≈ 28.3 µM)	0.125 (≈ 0.11 µM)	1 (≈ 0.883 µM)	CCCCCCC(CCN)C(=O)N[C@H](C(=O)N[C@@H](CCN)C(=O)N[C@H]1CCNC(=O)[C@H]([C@@H](C)O)NC(=O)[C@H](CCN)NC(=O)[C@H](CCN)NC(=O)[C@H](CC(C)C)NC(=O)[C@@H](Cc2ccccc2)NC(=O)[C@H](CCN)NC1=O)C(C)O (some centres unmarked) [Example C5, 2-(2-Aminoethyl) octanoyl polymyxin B nonapeptide, reference compound] (X6-[Thr(3ξ)][Dab][Dab][Dab][dF]L[Dab][Dab]T; lactam 3-C)	MIC E. coli NCTC 9001 (Escherichia coli): 0.03 µg/mL (≈ 0.0265 µM); MIC A. baumanii NCTC 13424 (Acinetobacter baumannii): 0.25 µg/mL (≈ 0.221 µM); MIC K. pneumoniae ATCC 13882 (Klebsiella pneumoniae): 0.125 µg/mL (≈ 0.11 µM); MIC P. aeruginosa CCUG 59347 (Pseudomonas aeruginosa): 0.5 µg/mL (≈ 0.442 µM)
																			CC(C)C[C@@H]1NC(=O)[C@@H](CC2CCCCC2)NC(=O)[C@H](CCN)NC(=O)[C@@H](NC(=O)[C@H](CCN)NC(=O)[C@@H](NC(=O)CC(CN)Cc2ccccc2)[C@@H](C)O)CCNC(=O)[C@H]([C@@H](C)O)NC(=O)[C@H](CCN)NC(=O)[C@H](CCN)NC1=O (single isomer, unassigned; isomer 2) [Example 67, 4-amino-3-benzylbutanoyl polymyxin [D-cyclohexylalanine]-6 nonapeptide isomer 2]	HK-2 IC50 (HK-2 cells; HK-2 cells): 60 µg/mL; MIC E. coli 058 (Escherichia coli; strain 058): 4 µg/mL (≈ 3.5 µM); MIC E. coli 061 (Escherichia coli; strain 061): 16 µg/mL (≈ 14 µM); MIC E. coli ATCC 25922 (Escherichia coli; strain ATCC 25922): 0.125 µg/mL (≈ 0.109 µM); MIC E. coli NCTC 9001 (Escherichia coli; strain NCTC 9001): 0.06 µg/mL (≈ 0.0524 µM); MIC A. baumanii 053 (Acinetobacter baumannii; strain 053): 64 µg/mL (≈ 55.9 µM); MIC A. baumanii 056 (Acinetobacter baumannii; strain 056): 16 µg/mL (≈ 14 µM); MIC A. baumanii ATCC BAA-747 (Acinetobacter baumannii; strain ATCC BAA-747): 0.25 µg/mL (≈ 0.218 µM); MIC A. baumanii NCTC 13424 (Acinetobacter baumannii; strain NCTC 13424): 0.25 µg/mL (≈ 0.218 µM); MIC K. pneumoniae 063 (Klebsiella pneumoniae; strain 063): 32 µg/mL (≈ 28 µM); MIC K. pneumoniae 065 (Klebsiella pneumoniae; strain 065): 1 µg/mL (≈ 0.874 µM); MIC K. pneumoniae ATCC 13882 (Klebsiella pneumoniae; strain ATCC 13882): 0.25 µg/mL (≈ 0.218 µM); MIC P. aeruginosa 068 (Pseudomonas aeruginosa; strain 068): 8 µg/mL (≈ 6.99 µM); MIC P. aeruginosa 070 (Pseudomonas aeruginosa; strain 070): 16 µg/mL (≈ 14 µM); MIC P. aeruginosa ATCC 27853 (Pseudomonas aeruginosa; strain ATCC 27853): 0.25 µg/mL (≈ 0.218 µM); MIC P. aeruginosa CCUG 59347 (Pseudomonas aeruginosa; strain CCUG 59347): 0.25 µg/mL (≈ 0.218 µM)
316	8 (≈ 7.16 µM)	16 (≈ 14.3 µM)	8 (≈ 7.16 µM)	32 (≈ 28.6 µM)	0.25 (≈ 0.224 µM)	>256	256 (≈ 229 µM)	0.25 (≈ 0.224 µM)		128 (≈ 115 µM)	32 (≈ 28.6 µM)	32 (≈ 28.6 µM)	>256	0.125 (≈ 0.112 µM)	32 (≈ 28.6 µM)		0.5 (≈ 0.447 µM)	16 (≈ 14.3 µM)	CC(C)C[C@@H]1NC(=O)[C@@H](Cc2ccccc2)NC(=O)[C@H](CCN)NC(=O)[C@@H](NC(=O)[C@H](CN)NC(=O)[C@@H](NC(=O)[C@@H]2CNCCN2CC(C)C)C(C)O)CCNC(=O)[C@H]([C@@H](C)O)NC(=O)[C@H](CCN)NC(=O)[C@H](CCN)NC1=O (stereo partly drawn) [Example C2, (S)-1-isobutyl piperazine-2-carbonyl-L-Thr-L-Dap-polymyxin B heptapeptide, reference compound] (X1-[Thr(3ξ)][Dap][Dab][Dab][dF]L[Dab][Dab]T; lactam 3-C)	
76	4 (≈ 3.46 µM)	8 (≈ 6.93 µM)	8 (≈ 6.93 µM)	16 (≈ 13.9 µM)	0.25 (≈ 0.216 µM)	32 (≈ 27.7 µM)	16 (≈ 13.9 µM)	0.125 (≈ 0.108 µM)	8 (≈ 6.93 µM)	64 (≈ 55.4 µM)	8 (≈ 6.93 µM)	8 (≈ 6.93 µM)	>64	0.25 (≈ 0.216 µM)	8 (≈ 6.93 µM)	16 (≈ 13.9 µM)	0.5 (≈ 0.433 µM)	8 (≈ 6.93 µM)	CC(C)CC(CN)C(=O)N[C@H](C(=O)N[C@@H](CN)C(=O)N[C@H]1CCNC(=O)[C@H]([C@@H](C)O)NC(=O)[C@H](CCN)NC(=O)[C@H](CCN)NC(=O)[C@H](CC(C)C)NC(=O)[C@@H](Cc2ccc(Br)cc2)NC(=O)[C@H](CCN)NC1=O)C(C)O (single isomer, unassigned; isomer 2) [Example 14, 2-aminomethyl-4-methyl pentanoyl polymyxin L-Thr-L-Dap-polymyxin [D-(4-bromo Phe)]-6]heptapeptide. Isomer 2]	
3	1 (≈ 0.791 µM)	0.5 (≈ 0.396 µM)	1 (≈ 0.791 µM)	2 (≈ 1.58 µM)	1 (≈ 0.791 µM)	8 (≈ 6.33 µM)	4 (≈ 3.17 µM)	1 (≈ 0.791 µM)	4 (≈ 3.17 µM)	4 (≈ 3.17 µM)	2 (≈ 1.58 µM)	0.5 (≈ 0.396 µM)	4 (≈ 3.17 µM)	1 (≈ 0.791 µM)	2 (≈ 1.58 µM)	2 (≈ 1.58 µM)		1 (≈ 0.791 µM)	CCCCCCCCN1CCNC[C@H]1C(=O)N[C@H](C(=O)N[C@@H](CCN)C(=O)N[C@H]1CCNC(=O)[C@H]([C@@H](C)O)NC(=O)[C@H](CCN)NC(=O)[C@H](CCN)NC(=O)[C@H](CC(C)C)NC(=O)[C@@H](Cc2ccc(-c3ccccc3)cc2)NC(=O)[C@H](CCN)NC1=O)C(C)O (some centres unmarked) [Example 6] (X3-[Thr(3ξ)][Dab][Dab][Dab][dBip]L[Dab][Dab]T; lactam 3-C)	
20	1 (≈ 0.853 µM)			0.5 (≈ 0.426 µM)	0.5 (≈ 0.426 µM)			0.5 (≈ 0.426 µM)		2 (≈ 1.71 µM)				0.25 (≈ 0.213 µM)	1 (≈ 0.853 µM)	1 (≈ 0.853 µM)	1 (≈ 0.853 µM)	1 (≈ 0.853 µM)	CC(C)Cc1ccc(C[C@H]2NC(=O)[C@H](CCN)NC(=O)[C@@H](NC(=O)[C@H](CN)NC(=O)[C@@H](NC(=O)C3CNCC(CC(C)C)C3)C(C)O)CCNC(=O)[C@H]([C@@H](C)O)NC(=O)[C@H](CCN)NC(=O)[C@H](CCN)NC(=O)[C@H](CC(C)C)NC2=O)cc1 (single isomer, unassigned; isomer 2) [Example 25, (Ttrans-5-(isobutyl-piperidine)-3-carbonyl L-Thr-L-Dap-polymyxin [D-(4-isobutyl Phe)]-6]heptapeptide isomer 2]	MIC A. baumanii NCTC 13424 (Acinetobacter baumannii): 0.5 µg/mL (≈ 0.426 µM); MIC P. aeruginosa CCUG 59347 (Pseudomonas aeruginosa): 2 µg/mL (≈ 1.71 µM)
